Assay results as given in PubChem BioAssay AID328 (DTP/NCI, 2004).
“And” between values parts separate entries of the source, which are not always exact repeats. Equal values may be shown once. Toxic doses and inconclusive results are not listed. Residues, ends and D or L forms follow the SMILES beside them. *: point of attachment. Cbz = O=C(OCc1ccccc1)*; OBn = c1ccc(CO*)cc1; Bn = c1ccc(C*)cc1

System: BDF1 mice, P388 leukemia ip, median survival T/C
Test: NCI In Vivo Anticancer Drug Screen. Data for tumor model P388 Leukemia (intraperitoneal) in B6D2F1 (BDF1) mice
Details: endpoint: median survival time, higher = longer survival
Outline: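 Reported as T/C, where T is the survival measurement in dosed animals and C the same measurement in vehicle controls.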

[1] = dose: 100.0 mg/kg/injection, schedule: Q01DX001 (ip), vehicle: Klucel (hydroxypropylcellulose) (HPC)
[2] = dose: 100.0 mg/kg/injection, schedule: Q04DX003 (ip), vehicle: Klucel (hydroxypropylcellulose) (HPC)
[3] = dose: 200.0 mg/kg/injection, schedule: Q01DX001 (ip), vehicle: Klucel (hydroxypropylcellulose) (HPC)
[4] = dose: 200.0 mg/kg/injection, schedule: Q04DX003 (ip), vehicle: Klucel (hydroxypropylcellulose) (HPC)
[5] = dose: 400.0 mg/kg/injection, schedule: Q01DX001 (ip), vehicle: Klucel (hydroxypropylcellulose) (HPC)
[6] = dose: 400.0 mg/kg/injection, schedule: Q04DX003 (ip), vehicle: Klucel (hydroxypropylcellulose) (HPC)
[7] = dose: 12.5 mg/kg/injection, schedule: Q04DX003 (ip), vehicle: saline
[8] = dose: 25.0 mg/kg/injection, schedule: Q04DX003 (ip), vehicle: saline
[9] = dose: 50.0 mg/kg/injection, schedule: Q04DX003 (ip), vehicle: saline
[10] = dose: 400.0 mg/kg/injection, schedule: Q04DX003 (ip), vehicle: saline
[11] = dose: 100.0 mg/kg/injection, schedule: Q01DX009 (ip), vehicle: Klucel (hydroxypropylcellulose) (HPC)
[12] = dose: 200.0 mg/kg/injection, schedule: Q01DX009 (ip), vehicle: Klucel (hydroxypropylcellulose) (HPC)
[13] = dose: 400.0 mg/kg/injection, schedule: Q01DX009 (ip), vehicle: Klucel (hydroxypropylcellulose) (HPC)
[14] = dose: 100.0 mg/kg/injection, schedule: Q01DX009 (ip), vehicle: saline with Tween-80
[15] = dose: 200.0 mg/kg/injection, schedule: Q01DX009 (ip), vehicle: saline with Tween-80
[16] = dose: 400.0 mg/kg/injection, schedule: Q01DX009 (ip), vehicle: saline with Tween-80
[17] = dose: 50.0 mg/kg/injection, schedule: Q01DX009 (ip), vehicle: Klucel (hydroxypropylcellulose) (HPC)
[18] = dose: 25.0 mg/kg/injection, schedule: Q01DX009 (ip), vehicle: saline with Tween-80
[19] = dose: 25.0 mg/kg/injection, schedule: Q01DX009 (ip), vehicle: Klucel (hydroxypropylcellulose) (HPC)

ClC1=C(Cl)C2(Cl)C3COCC3C1(Cl)C2(Cl)Cl (stereo not drawn)
T/C [1]: 113 % of control
T/C [2]: 104 % of control
T/C [3]: 113 % of control
T/C [4]: 100 % of control and 108 % of control
T/C [5]: 104 % of control
T/C [6]: 100 % of control

CSc1nc(Cl)cc2c1ncn2C1OC(CO)C(O)C1O (stereo not drawn)
T/C [7]: 105 % of control
T/C [8]: 102 % of control
T/C [9]: 102 % of control
T/C (dose: 100.0 mg/kg/injection, schedule: Q04DX003 (ip), vehicle: saline): 112 % of control
T/C (dose: 200.0 mg/kg/injection, schedule: Q04DX003 (ip), vehicle: saline): 110 % of control
T/C [10]: 100 % of control

CCC(C)C(C)(COC(N)=O)COC(N)=O (stereo not drawn)
T/C [11]: 90 % of control
T/C [12]: 86 % of control
T/C [13]: 95 % of control

CCCCCCC(=O)/C=C/c1ccc(Cl)cc1
T/C [14]: 90 % of control
T/C [15]: 91 % of control
T/C [16]: 100 % of control

CCCCCCCCCCCCCCCCOc1ccccc1CNc1cccc(S(=O)(=O)F)c1
T/C [14]: 95 % of control
T/C [15]: 95 % of control
T/C [16]: 95 % of control

CNC(=S)N(N)c1ccccc1
T/C [17]: 108 % of control
T/C [11]: 94 % of control
T/C [2]: 90 % of control
T/C [12]: 95 % of control
T/C [4]: 95 % of control

CC1(C)CC2C(=O)c3ccccc3NC2c2ccccc21 (stereo not drawn)
T/C [11]: 87 % of control
T/C [2]: 112 % of control
T/C [12]: 108 % of control
T/C [4]: 104 % of control
T/C [6]: 108 % of control

COC(=O)c1ccc(OP(=O)(N(C)C)N(C)C)cc1
T/C (dose: 12.5 mg/kg/injection, schedule: Q01DX009 (ip), vehicle: saline with Tween-80): 117 % of control
T/C [18]: 115 % of control

CC(CNCCN)C[Si](C)(C)C (stereo not drawn)
T/C (dose: 12.5 mg/kg/injection, schedule: Q01DX009 (ip), vehicle: saline): 95 % of control
T/C [7]: 88 % of control
T/C (dose: 25.0 mg/kg/injection, schedule: Q01DX009 (ip), vehicle: saline): 100 % of control
T/C [8]: 100 % of control
T/C (dose: 50.0 mg/kg/injection, schedule: Q01DX009 (ip), vehicle: saline): 90 % of control
T/C [9]: 94 % of control

CC(=O)Nc1ccc(OCCOC(=O)Nc2c(Cl)cccc2Cl)cc1
T/C [19]: 111 % of control
T/C [17]: 100 % of control
T/C [11]: 100 % of control

CNc1ccc2c(c1)C(=O)c1c(C)n(C)c3cccc-2c13
T/C (dose: 12.5 mg/kg/injection, schedule: Q01DX005 (ip), vehicle: saline with Tween-80): 98 % of control
T/C (dose: 25.0 mg/kg/injection, schedule: Q01DX005 (ip), vehicle: saline with Tween-80): 98 % of control

COC1OC(CNC(=O)N(C)N=O)C(O)C(O)C1O (stereo not drawn)
T/C (dose: 100.0 mg/kg/injection, schedule: Q01DX009 (ip), vehicle: saline): 164 % of control
T/C (dose: 200.0 mg/kg/injection, schedule: Q01DX009 (ip), vehicle: saline): 240 % of control
T/C (dose: 266.0 mg/kg/injection, schedule: Q04DX003 (ip), vehicle: saline): 154 % of control
T/C (dose: 400.0 mg/kg/injection, schedule: Q01DX009 (ip), vehicle: saline): 309 % of control
T/C [10]: 162 % of control
T/C (dose: 600.0 mg/kg/injection, schedule: Q04DX003 (ip), vehicle: saline): 216 % of control

c1ccc(SC23CC4CC(CC(C4)C2)C3)nc1
T/C [1]: 100 % of control
T/C [3]: 90 % of control
T/C [5]: 100 % of control

CC(=O)Nc1c([N+](=O)[O-])ccc(Cl)c1Cl
T/C [19]: 104 % of control
T/C [17]: 87 % of control
T/C [11]: 100 % of control
T/C [2]: 100 % of control

C[C@]12CCC(=O)C=C1CC[C@@H]1[C@@H]2[C@@H](O)C[C@@]2(C)[C@H]1CC[C@]2(O)C(=O)COC(=O)CCC1CCCC1
T/C (dose: 12.5 mg/kg/injection, schedule: Q01DX009 (ip), vehicle: Klucel (hydroxypropylcellulose) (HPC)): 118 % of control
T/C [19]: 113 % of control
T/C [17]: 100 % of control
T/C [2]: 123 % of control
T/C [4]: 109 % of control
T/C [6]: 109 % of control

O=C(O)C1CC2CCC1C2 (stereo not drawn)
T/C (dose: 100.0 mg/kg/injection, schedule: Q01DX001 (ip), vehicle: saline with Tween-80): 100 % of control
T/C (dose: 200.0 mg/kg/injection, schedule: Q01DX001 (ip), vehicle: saline with Tween-80): 95 % of control
T/C (dose: 400.0 mg/kg/injection, schedule: Q01DX001 (ip), vehicle: saline with Tween-80): 100 % of control

CN=NNCc1ccccc1
T/C (dose: 12.5 mg/kg/injection, schedule: Q01DX005 (ip), vehicle: saline): 117 % of control
T/C (dose: 25.0 mg/kg/injection, schedule: Q01DX005 (ip), vehicle: saline): 86 % of control

COc1ccc(-c2csc(-c3ccccc3)n2)cc1N=Cc1ccc(N(CCCl)CCCl)c(OC)c1
T/C (dose: 2.6 mg/kg/injection, schedule: Q04DX003 (ip), vehicle: saline with Tween-80): 118 % of control
T/C (dose: 4.0 mg/kg/injection, schedule: Q04DX003 (ip), vehicle: saline with Tween-80): 122 % of control
T/C (dose: 6.0 mg/kg/injection, schedule: Q04DX003 (ip), vehicle: saline with Tween-80): 90 % of control
T/C (dose: 13.0 mg/kg/injection, schedule: Q04DX003 (ip), vehicle: saline with Tween-80): 190 % of control
T/C (dose: 17.0 mg/kg/injection, schedule: Q01DX009 (ip), vehicle: saline with Tween-80): 240 % of control
T/C (dose: 20.0 mg/kg/injection, schedule: Q04DX003 (ip), vehicle: saline with Tween-80): 204 % of control
T/C [18]: 240 % of control
T/C (dose: 30.0 mg/kg/injection, schedule: Q04DX003 (ip), vehicle: saline with Tween-80): 271 % of control
T/C (dose: 37.0 mg/kg/injection, schedule: Q01DX009 (ip), vehicle: saline with Tween-80): 184 % of control
T/C (dose: 44.0 mg/kg/injection, schedule: Q04DX003 (ip), vehicle: saline with Tween-80): 242 % of control and 300 % of control
T/C (dose: 67.0 mg/kg/injection, schedule: Q04DX003 (ip), vehicle: saline with Tween-80): 272 % of control and 300 % of control
T/C [14]: 87 % of control

NC(=O)c1nccnc1Cl
T/C (dose: 50.0 mg/kg/injection, schedule: Q01DX009 (ip), vehicle: saline with Tween-80): 110 % of control
T/C (dose: 50.0 mg/kg/injection, schedule: Q04DX003 (ip), vehicle: saline with Tween-80): 101 % of control
T/C [14]: 98 % of control
T/C (dose: 100.0 mg/kg/injection, schedule: Q04DX003 (ip), vehicle: saline with Tween-80): 102 % of control and 111 % of control
T/C [15]: 91 % of control
T/C (dose: 200.0 mg/kg/injection, schedule: Q04DX003 (ip), vehicle: saline with Tween-80): 88 % of control and 104 % of control
T/C (dose: 400.0 mg/kg/injection, schedule: Q04DX003 (ip), vehicle: saline with Tween-80): 92 % of control and 101 % of control

Cc1ccc([N+](=O)[O-])cc1NC(=O)Nc1ccc(S(N)(=O)=O)cc1
T/C [11]: 100 % of control
T/C [12]: 100 % of control
T/C [13]: 100 % of control

c1ccc(-c2ccc(-c3cn4ccsc4n3)cc2)cc1
T/C [1]: 101 % of control
T/C [3]: 99 % of control
T/C [5]: 100 % of control

NCCc1ccc(OCc2ccccc2)c(OCc2ccccc2)c1
T/C (dose: 8.0 mg/kg/injection, schedule: Q01DX009 (ip), vehicle: saline): 100 % of control
T/C (dose: 12.0 mg/kg/injection, schedule: Q01DX009 (ip), vehicle: saline): 104 % of control
T/C [7]: 104 % of control
T/C (dose: 18.0 mg/kg/injection, schedule: Q01DX009 (ip), vehicle: saline): 116 % of control
T/C [8]: 104 % of control
T/C [9]: 100 % of control

CC(C)CC(NC(=O)C(CSCc1ccccc1)NC(=O)OCc1ccccc1)C(=O)OCc1ccccc1 (stereo not drawn) (Cbz-Cys(Bn)-Leu-OBn; configuration not given here)
T/C (dose: 100.0 mg/kg/injection, schedule: Q04DX003 (ip), vehicle: gum acacia): 104 % of control
T/C (dose: 200.0 mg/kg/injection, schedule: Q04DX003 (ip), vehicle: gum acacia): 100 % of control
T/C (dose: 400.0 mg/kg/injection, schedule: Q04DX003 (ip), vehicle: gum acacia): 100 % of control

Nc1nc(N)c2cc(S(=O)(=O)c3ccc4ccccc4c3)ccc2n1
T/C [17]: 90 % of control
T/C [11]: 109 % of control
T/C [2]: 90 % of control
T/C [12]: 95 % of control
T/C [4]: 104 % of control
T/C [6]: 104 % of control
